Numbers after ± are expanded uncertainties.
Assays:
[1] = 96 kPa, Liquid; for viscosity: Cone and plate viscometry; for electrical conductivity: Frequency=0.001 MHz, Alternating current cell with electrodes
[2] = xn = mol fraction of the nth substance listed; conditions: 96 kPa, Liquid, Cone and plate viscometry, x2 = 0

viscosity ([1]; 288.1 K) [mPa·s] | electrical conductivity ([1]; 288.1 K) [S/m] | electrical conductivity ([1]; 293.1 K) [S/m] | viscosity ([1]; 298.1 K) [mPa·s] | electrical conductivity ([1]; 298.1 K) [S/m] | electrical conductivity ([1]; 303.1 K) [S/m] | viscosity ([1]; 308.1 K) [mPa·s] | electrical conductivity ([1]; 308.1 K) [S/m] | electrical conductivity ([1]; 313.1 K) [S/m] | viscosity ([1]; 318.1 K) [mPa·s] | electrical conductivity ([1]; 318.1 K) [S/m] | electrical conductivity ([1]; 323.1 K) [S/m] | viscosity ([1]; 328.1 K) [mPa·s] | electrical conductivity ([1]; 328.1 K) [S/m] | viscosity ([2]; 288.1 K) [mPa·s] | viscosity ([2]; 298.1 K) [mPa·s] | viscosity ([2]; 308.1 K) [mPa·s] | viscosity ([2]; 318.1 K) [mPa·s] | viscosity ([2]; 328.1 K) [mPa·s] | Structure (SMILES)
15.35 ± 1 | 0.000222 ± 8.8e-06 | 0.000241 ± 9.5e-06 | 10.32 ± 0.67 | 0.000267 ± 1.1e-05 | 0.000297 ± 1.2e-05 | 8.17 ± 0.53 | 0.00032 ± 1.3e-05 | 0.000356 ± 1.4e-05 | 6.08 ± 0.39 | 0.000382 ± 1.5e-05 | 0.000423 ± 1.7e-05 | 4.91 ± 0.32 | 0.000444 ± 1.8e-05 |  |  |  |  |  | C1CCC2=NCCCN2CC1 [1,8-diaza-7-bicyclo[5.4.0]undecene]
 |  |  |  |  |  |  |  |  |  |  |  |  |  | 2180 ± 380 | 933.8 ± 110 | 420.3 ± 39 | 195.6 ± 15 | 104.3 ± 7.3 | OCC(O)CO [glycerol] + C1CCC2=NCCCN2CC1
2180 ± 380 |  |  | 933.8 ± 110 |  |  | 420.3 ± 39 |  |  | 195.6 ± 15 |  |  | 104.3 ± 7.3 |  |  |  |  |  |  | OCC(O)CO [glycerol]

— the NIST ThermoML archive (doi:10.1016/j.jct.2019.04.017)
